Laboratory results from ChEMBL document CHEMBL2146405, “Isomalyngamide A, A-1 and their analogs suppress cancer cell migration in vitro” (Eur J Med Chem, 2011).
Calls of active or inactive are those of the source. The calls are words filed in the database; no cut-off is given here.

What was measured:
[1] = molecular target: Integrin beta-1 (Homo sapiens) (UniProt P05556); assay: Inhibition of beta1-integrin in human MDA-MB-231 cells after 2 hrs by Western blot analysis; assay type: cell-based
[2] = molecular target: Integrin beta-1 (Homo sapiens) (UniProt P05556); assay: Inhibition of beta1-integrin in human MDA-MB-231 cells assessed as FAK protein level after 2 hrs by Western blot analysis; assay type: cell-based
[3] = molecular target: Integrin beta-1 (Homo sapiens) (UniProt P05556); assay: Inhibition of beta1-integrin in human MDA-MB-231 cells assessed as Akt phosphorylation at Ser473 after 2 hrs by Western blot analysis; assay type: cell-based
[4] = molecular target: Integrin beta-1 (Homo sapiens) (UniProt P05556); assay: Inhibition of beta1-integrin in human MDA-MB-231 cells assessed as Akt protein level after 2 hrs by Western blot analysis; assay type: cell-based
[5] = molecular target: Integrin beta-1 (Homo sapiens) (UniProt P05556); assay: Inhibition of beta1-integrin in human MDA-MB-231 cells assessed as FAK phosphorylation at Tyr576/Tyr577 after 2 hrs by Western blot analysis; assay type: cell-based
MDA-MB-231 [6] = assay: cells; conditions: Homo sapiens, MDA-MB-231, 16 h
Description: Antimetastatic activity in human MDA-MB-231 cells assessed as inhibition of serum-induced cellular migration after 16 hrs by Boyden chamber assay

MDA-MB-231 [7] = assay: Antiproliferative activity against human MDA-MB-231 cells after 48 hrs by MTT assay; assay type: functional, cell-based; conditions: MDA-MB-231, 48 h
MDA-MB-231 [8] = assay: Antimetastatic activity in human MDA-MB-231 cells assessed as inhibition of serum-induced cellular migration at 150 nM after 24 hrs by wound healing assay; assay type: functional, cell-based
MDA-MB-231 [9] = assay: Antimetastatic activity in human MDA-MB-231 cells assessed as inhibition of cell migration-associated wound closure at 150 nM after 24 hrs of scratching by wound-healing assay; assay type: functional, cell-based
MCF7 [10] = assay: Antiproliferative activity against human MCF7 cells after 48 hrs by MTT assay; assay type: functional, cell-based; conditions: MCF7, 48 h
[11] = Inhibition of rat liver alpha 2,3-sialyltransferase
Rattus norvegicus = species: Rattus norvegicus; assay: Inhibition of rat liver alpha 2,3-sialyltransferase at 100 uM
MCF7 [12] = assay: Antiproliferative activity against human MCF7 cells at 20 uM after 48 hrs by MTT assay; assay type: functional; conditions: MCF7, 48 h
MDA-MB-231 [13] = assay: Antiproliferative activity against human MDA-MB-231 cells at 20 uM after 48 hrs by MTT assay; assay type: functional; conditions: MDA-MB-231, 48 h
MDA-MB-231 [14] = assay: Antiproliferative activity against human MDA-MB-231 cells assessed as reduction in cell viability at 50 uM after 48 hrs by MTT assay; assay type: functional, cell-based
[15] = Solubility of compound at 10 uM; assay type: physicochemical

Chain of Integrin beta-1 (Homo sapiens) (P05556 whole entry): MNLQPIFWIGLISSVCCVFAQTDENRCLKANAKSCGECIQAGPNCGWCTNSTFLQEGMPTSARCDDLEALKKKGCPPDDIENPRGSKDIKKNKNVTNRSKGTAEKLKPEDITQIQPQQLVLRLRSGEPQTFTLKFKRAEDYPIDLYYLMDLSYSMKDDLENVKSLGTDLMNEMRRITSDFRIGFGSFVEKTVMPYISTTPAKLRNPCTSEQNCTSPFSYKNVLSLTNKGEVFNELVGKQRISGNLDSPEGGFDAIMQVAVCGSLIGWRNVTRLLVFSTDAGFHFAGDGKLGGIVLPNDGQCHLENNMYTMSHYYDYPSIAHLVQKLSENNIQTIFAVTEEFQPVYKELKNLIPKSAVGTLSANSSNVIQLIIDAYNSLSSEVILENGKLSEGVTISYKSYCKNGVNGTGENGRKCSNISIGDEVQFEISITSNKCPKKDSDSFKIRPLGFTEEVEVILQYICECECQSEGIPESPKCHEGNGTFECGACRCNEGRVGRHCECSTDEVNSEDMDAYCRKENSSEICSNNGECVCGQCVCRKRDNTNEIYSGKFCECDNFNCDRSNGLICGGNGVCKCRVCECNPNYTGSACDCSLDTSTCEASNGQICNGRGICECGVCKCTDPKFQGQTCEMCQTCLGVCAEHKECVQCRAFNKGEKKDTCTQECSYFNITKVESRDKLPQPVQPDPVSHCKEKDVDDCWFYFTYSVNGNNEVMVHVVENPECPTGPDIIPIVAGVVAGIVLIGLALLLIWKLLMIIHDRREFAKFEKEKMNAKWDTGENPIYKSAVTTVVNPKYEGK

SMILES: CCCCCCCCCCCCCC(=O)NCCNC(=O)C(C)(C)C(=O)N1CC(=O)CC1=O
- inhibition [1]: Dose-dependent effect
- inhibition [2]: Dose-dependent effect
- inhibition [3]: Active
- inhibition [4]: Dose-dependent effect
- inhibition [5]: Dose-dependent effect

SMILES: CCCCCCC[C@@H](C/C=C/CCC(=O)N(C)C/C(=C\Cl)C/C(=C\C(=O)N1CC(OC)=CC1=O)OC)OC [ISOMALYNGAMIDE A]
- IC50 (MDA-MB-231 [6]): 0.06 µM
- IC50 (MDA-MB-231 [7]): 2.8 µM
- Activity (MDA-MB-231 [8]): Active
- Activity (MDA-MB-231 [9]): Active
- IC50 (MCF7 [10]): 4.6 µM
- IC50 [11]: 77.2 µM

SMILES: COC1=CC(=O)NC1
- inhibition (Rattus norvegicus): inactive
- inhibition at 20 µM (MCF7 [12]): 2%
- inhibition at 20 µM (MDA-MB-231 [13]): 3%

SMILES: CCCCCCCCCCCCCC(=O)NCCNC(=O)C(C)(C)C(=O)NCC(=O)O
- IC50 (MDA-MB-231 [6]): 22.7 µM
- inhibition at 20 µM (MCF7 [12]): 7%
- inhibition at 20 µM (MDA-MB-231 [13]): 0%
- IC50 [11]: 37 µM
- Activity (MDA-MB-231 [14]): inactive

SMILES: CCCCCCCCCCCCCC(=O)N1CC(OC)=CC1=O
- solubility [15]: Insoluble
